Experiments:
[1] = tested on: C. acnes strain C3; assay: Minimum inhibitory concentration (MIC) of cosmetic excipients, strain C3; assay type: cell-based, Cutibacterium acnes; conditions: % w/vol, anaerobic 3 days at 37° C, visual growth scoring
Description: (§1) In microbiology, the MIC is the lowest concentration of a chemical which prevents visible growth of bacterium. The resulted MIC value depends both on the microorganism and the test compound. The MIC is determined by preparing concentrations series of the test compound in vitro, incubating the solutions with the separate batches of cultured bacteria, and measuring the results using agar dilution or broth microdilution. For the experiments with C. acnes strains C3 and K8, media comprising yeast extract soy peptone and dextrose were used. The MIC is determined by turbidity.
(§2) A total of 125 cosmetic excipients were tested for their compatibility with C. acnes strains C3 and K8. Hydrophilic compounds were tested in a 96-well plate liquid broth format, poorly soluble compounds were pre-dissolved in DMSO before dilution in liquid broth and hydrophobic or solid compounds were tested in an agar well diffusion test assay. The different dilutions of the test excipients in media were prepared in Falcon tubes and then distributed in a deep well plate using a multistepper. Each well received 1.2 ml and was subsequently inoculated with 120 μl of C. acnes bacteria suspension (strain C3 and K8). From the deep well plate 200 μl were transferred in each well of a clear 96 well replicate plate. The leftover was discarded. The plates were then incubated anaerobically for 3 days at 37° C. Following incubation, the test plates were visually examined and wells were scored for growth or complete growth inhibition to define the minimum inhibitory concentration.
(§3) These excipients are listed in the below table with their compatibility values for C. acnes strains C3 and K8. The compatibility values represent the MIC value of the listed ingredients with the tested C. acnes strains. At this concentration [% w/vol] the tested compound starts interfering with the growth of the tested strains. The compounds can be used in formulations at concentrations below this concentration.

[2] = tested on: C. acnes strain K8; assay: Minimum inhibitory concentration (MIC) of cosmetic excipients, strain K8; assay type: cell-based, Cutibacterium acnes; conditions: % w/vol, anaerobic 3 days at 37° C, visual growth scoring
Description: as §1, §2, §3

Row | Compound | COMPATABILITY VALUE C3 (MIC) [1] [%] | COMPATABILITY VALUE K8 (MIC) [2] [%]
1 | CCCCCCC(O)CO (stereo not drawn) [caprylyl glycol] | 0.18 | 0.18
2 | O=C(O)CC(O)(CC(=O)O)C(=O)O [citric acid] |  | 0.08
3 | CC(CO)CO [methylpropanediol] | 4.00 | 4.00
4 | CC(=O)Oc1c(C)c(C)c2c(c1C)CCC(C)(CCC[C@H](C)CCC[C@H](C)CCCC(C)C)O2 (stereo partly drawn) [tocopheryl acetate] |  | 1.00
5 | ethylhexyl cocoate | 10.00 | 10.00
6 | peg-40 hydrogenated castor oil | 1.00 | 1.00
7 | tocopherol | 1.50 | 1.50

Reference: patent US20220339094A1, “NOVEL SKIN CARE COMPOSITION” (BEIERSDORF AG, priority 2019, published 2022)
